Source: patent US4385047A, “Antiallergic imidodisulfamides” (SmithKline Beckman Corporation, priority 1981, dated 1983)

System: partially purified slow reacting substance of anaphylaxis (SRS-A) obtained from guinea pig lung
Test: Inhibition of SRS-A induced contraction of guinea pig ileum
Details: compound concentration 5×10^-6 M, agonist SRS-A 40 μg/ml, 15 min, 5 µM
Experimental: The SRS-A antagonist activity of the compounds of this invention is measured by the ability of the active medicament to inhibit SRS-A induced contraction of guinea pig ileum. In this test system, sections of ileum are resected from guinea pigs and placed in 5 ml. tissue baths containing a modified Tyrode's solution. One end of the tissue is fixed to a glass tissue holder, the other is connected to a force-displacement transducer and the tissue is placed under a tension of 500 mg. Isometric tissue contractions are recorded on a six channel polygraph. Baths are constantly aerated with 95% O2 -5% CO2. After a 20 minute stabilization period a concentration of the appropriate agonist which provides a contraction height of 60-80% of the maximum obtainable to that agonist (as determined from full sequential concentration--response curves in separate experiments) is added to the tissue bath and the response recorded. The procedure is repeated until reproducible responses are obtained. […] Percent inhibition produced by the test compound is calculated by subtracting the mean percentage change in control tissue from the mean percentage change in tissues exposed to the test compound. Additional compounds are then evaluated as long as the tissue remains reproducibly responsive to the agonist. […]

With `O=C(CS(=O)(=O)c1ccc2c(c1)CN(S(=O)(=O)NS(=O)(=O)N1CCc3ccc(S(=O)(=O)CC(=O)c4ccc(Cl)cc4)cc3C1)CC2)c1ccc(Cl)cc1` [Compound 1, N,N'-bis[7-(4-chlorobenzoylmethylsulfonyl)-1,2,3,4-tetrahydroisoquinolyl]disulfonylimide] the “percent antagonism of SRS-A induced contraction” value was 60%.
